Assay results from PubChem BioAssay AID330 (DTP/NCI, 2004).
“And” between values parts separate entries of the source, which are not always exact repeats. Equal values may be shown once. Inconclusive results and toxic doses are left out.

Tested on: P388 leukemia ip, CD2F1 mice, survival T/C
Test: NCI In Vivo Anticancer Drug Screen. Data for tumor model P388 Leukemia (intraperitoneal) in CD2F1 (CDF1) mice
Conditions: endpoint: median survival time, higher = longer survival
Method in brief: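 Mice carrying the transplanted tumor received test compound or vehicle. Survival was recorded in each group, and the value is the treated-group measurement divided by that of the vehicle-treated control group.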

[1] = dose: 25.0 mg/kg/injection, schedule: Q01DX009 (ip), vehicle: saline with Tween-80
[2] = dose: 50.0 mg/kg/injection, schedule: Q01DX009 (ip), vehicle: saline with Tween-80
[3] = dose: 100.0 mg/kg/injection, schedule: Q01DX009 (ip), vehicle: saline with Tween-80
[4] = dose: 200.0 mg/kg/injection, schedule: Q01DX009 (ip), vehicle: saline with Tween-80
[5] = dose: 6.25 mg/kg/injection, schedule: Q01DX009 (ip), vehicle: water
[6] = dose: 100.0 mg/kg/injection, schedule: Q04DX003 (ip), vehicle: saline with Tween-80
[7] = dose: 200.0 mg/kg/injection, schedule: Q04DX003 (ip), vehicle: saline with Tween-80
[8] = dose: 50.0 mg/kg/injection, schedule: Q01DX009 (ip), vehicle: Klucel (hydroxypropylcellulose) (HPC)
[9] = dose: 100.0 mg/kg/injection, schedule: Q01DX009 (ip), vehicle: Klucel (hydroxypropylcellulose) (HPC)
[10] = dose: 200.0 mg/kg/injection, schedule: Q01DX009 (ip), vehicle: Klucel (hydroxypropylcellulose) (HPC)
[11] = dose: 50.0 mg/kg/injection, schedule: Q01DX005 (ip), vehicle: saline with Tween-80
[12] = dose: 100.0 mg/kg/injection, schedule: Q01DX005 (ip), vehicle: saline with Tween-80
[13] = dose: 200.0 mg/kg/injection, schedule: Q01DX005 (ip), vehicle: saline with Tween-80

CN1C(c2ccccc2)C2CSCC(C1c1ccccc1)C21NC(=O)NC1=O (configuration not stated)
T/C (dose: 100.0 mg/kg/injection, schedule: Q01DX001 (ip), vehicle: saline with Tween-80): 104 % of control | T/C (dose: 200.0 mg/kg/injection, schedule: Q01DX001 (ip), vehicle: saline with Tween-80): 100 % of control | T/C (dose: 400.0 mg/kg/injection, schedule: Q01DX001 (ip), vehicle: saline with Tween-80): 97 % of control

CC(C)(C)N1COC(c2ccccc2)C1 (configuration not stated)
T/C (dose: 50.0 mg/kg/injection, schedule: Q01DX005 (ip), vehicle: saline): 106 % of control | T/C (dose: 100.0 mg/kg/injection, schedule: Q01DX005 (ip), vehicle: saline): 111 % of control

CN(C)c1ccc(/C=C/c2ccnc3ccc(Cl)cc23)cc1
T/C [1]: 118 % of control

COc1ccc(-c2cc[n+]([O-])c(C)c2C)c(OC)c1OC
T/C [2]: 94 % of control | T/C [3]: 96 % of control | T/C [4]: 92 % of control

COC(=O)C1CCCCC1C(=O)OC (configuration not stated)
T/C (dose: 12.5 mg/kg/injection, schedule: Q01DX009 (ip), vehicle: saline): 108 % of control | T/C (dose: 25.0 mg/kg/injection, schedule: Q01DX009 (ip), vehicle: saline): 104 % of control and 111 % of control | T/C (dose: 50.0 mg/kg/injection, schedule: Q01DX009 (ip), vehicle: saline): 104 % of control | T/C (dose: 100.0 mg/kg/injection, schedule: Q01DX009 (ip), vehicle: saline): 100 % of control and 101 % of control (2×) | T/C (dose: 200.0 mg/kg/injection, schedule: Q01DX009 (ip), vehicle: saline): 110 % of control

CS(=O)(=O)O/C=C1/CCOC1=O
T/C (dose: 3.13 mg/kg/injection, schedule: Q01DX009 (ip), vehicle: water): 107 % of control | T/C [5]: 104 % of control | T/C (dose: 12.5 mg/kg/injection, schedule: Q01DX009 (ip), vehicle: water): 102 % of control and 108 % of control | T/C (dose: 25.0 mg/kg/injection, schedule: Q01DX009 (ip), vehicle: water): 120 % of control

COc1cccc2c1C(=O)c1c(O)c3c(c(O)c1C2=O)C[C@@](O)(CO)C[C@@H]3OC1CC(N)C(O)C(C)O1 (some centres not stated)
T/C (dose: 0.56 mg/kg/injection, schedule: Q04DX003 (ip), vehicle: water): 109 % of control | T/C (dose: 0.78 mg/kg/injection, schedule: Q01DX009 (ip), vehicle: water): 167 % of control | T/C (dose: 1.13 mg/kg/injection, schedule: Q04DX003 (ip), vehicle: water): 104 % of control | T/C (dose: 1.56 mg/kg/injection, schedule: Q01DX009 (ip), vehicle: water): 167 % of control and 183 % of control | T/C (dose: 2.25 mg/kg/injection, schedule: Q04DX003 (ip), vehicle: water): 109 % of control and 118 % of control | T/C (dose: 4.5 mg/kg/injection, schedule: Q04DX003 (ip), vehicle: water): 115 % of control and 123 % of control | T/C [5]: 88 % of control | T/C (dose: 9.0 mg/kg/injection, schedule: Q04DX003 (ip), vehicle: water): 121 % of control | T/C (dose: 18.0 mg/kg/injection, schedule: Q04DX003 (ip), vehicle: water): 119 % of control and 123 % of control | T/C (dose: 36.0 mg/kg/injection, schedule: Q04DX003 (ip), vehicle: water): 97 % of control

COCC1CCOC(C(C)C)O1 (configuration not stated)
T/C (dose: 60.0 mg/kg/injection, schedule: Q01DX005 (ip), vehicle: saline): 101 % of control | T/C (dose: 120.0 mg/kg/injection, schedule: Q01DX005 (ip), vehicle: saline): 100 % of control | T/C (dose: 240.0 mg/kg/injection, schedule: Q01DX005 (ip), vehicle: saline): 100 % of control

CC(=O)/C=C/c1ccc(O)cc1
T/C [2]: 110 % of control | T/C [3]: 98 % of control | T/C [6]: 105 % of control | T/C [4]: 100 % of control | T/C [7]: 113 % of control | T/C (dose: 400.0 mg/kg/injection, schedule: Q04DX003 (ip), vehicle: saline with Tween-80): 105 % of control

C=CCSc1nc2ccc(NC(=O)/C=C/C(=O)O)cc2s1
T/C [8]: 95 % of control | T/C [9]: 93 % of control | T/C [10]: 102 % of control

NC(=S)N/N=C/Cn1ccc(=O)[nH]c1=O
T/C (dose: 50.0 mg/kg/injection, schedule: Q01DX005 (ip), vehicle: Klucel (hydroxypropylcellulose) (HPC)): 100 % of control | T/C (dose: 100.0 mg/kg/injection, schedule: Q01DX005 (ip), vehicle: Klucel (hydroxypropylcellulose) (HPC)): 98 % of control | T/C (dose: 200.0 mg/kg/injection, schedule: Q01DX005 (ip), vehicle: Klucel (hydroxypropylcellulose) (HPC)): 99 % of control

COCC1(C)CCCC2(C)C1CCC13CCC(OC)CC12O3 (configuration not stated)
T/C (dose: 100.0 mg/kg/injection, schedule: Q01DX001 (ip), vehicle: saline): 115 % of control | T/C (dose: 200.0 mg/kg/injection, schedule: Q01DX001 (ip), vehicle: saline): 106 % of control | T/C (dose: 400.0 mg/kg/injection, schedule: Q01DX001 (ip), vehicle: saline): 94 % of control

COc1cccc2c1OC(=O)C(S(=O)(=O)c1ccccc1)C2 (configuration not stated)
T/C [11]: 97 % of control | T/C [12]: 104 % of control | T/C [13]: 101 % of control

CCCCCCCCCCC(O)CCCCCCCCCC
T/C [6]: 95 % of control | T/C [7]: 90 % of control

NNC(=O)c1oc2ccccc2c1CN(CCO)CCO
T/C [11]: 102 % of control | T/C [12]: 98 % of control | T/C [13]: 107 % of control

CC(C)(C)c1cc(C2C(=O)c3ccccc3C2=O)cc(C(C)(C)C)c1O
T/C (dose: 100.0 mg/kg/injection, schedule: Q04DX002 (ip), vehicle: saline): 110 % of control | T/C (dose: 200.0 mg/kg/injection, schedule: Q04DX002 (ip), vehicle: saline): 107 % of control | T/C (dose: 400.0 mg/kg/injection, schedule: Q04DX002 (ip), vehicle: saline): 107 % of control

Cc1ccc(S(=O)(=O)n2cccn2)cc1
T/C (dose: 6.25 mg/kg/injection, schedule: Q01DX009 (ip), vehicle: distilled water + Tween-80): 95 % of control | T/C (dose: 12.5 mg/kg/injection, schedule: Q01DX009 (ip), vehicle: distilled water + Tween-80): 100 % of control | T/C (dose: 25.0 mg/kg/injection, schedule: Q01DX009 (ip), vehicle: distilled water + Tween-80): 94 % of control | T/C (dose: 25.0 mg/kg/injection, schedule: Q01DX009 (ip), vehicle: other): 88 % of control | T/C (dose: 50.0 mg/kg/injection, schedule: Q01DX009 (ip), vehicle: distilled water + Tween-80): 105 % of control | T/C (dose: 100.0 mg/kg/injection, schedule: Q01DX009 (ip), vehicle: distilled water + Tween-80): 99 % of control | T/C (dose: 100.0 mg/kg/injection, schedule: Q01DX009 (ip), vehicle: other): 113 % of control | T/C (dose: 200.0 mg/kg/injection, schedule: Q01DX009 (ip), vehicle: other): 104 % of control | T/C (dose: 400.0 mg/kg/injection, schedule: Q01DX009 (ip), vehicle: other): 112 % of control

COc1ccccc1N1CCN(C(=O)CCCl)CC1
T/C (dose: 60.0 mg/kg/injection, schedule: Q01DX005 (ip), vehicle: Klucel (hydroxypropylcellulose) (HPC)): 109 % of control | T/C (dose: 120.0 mg/kg/injection, schedule: Q01DX005 (ip), vehicle: Klucel (hydroxypropylcellulose) (HPC)): 103 % of control | T/C (dose: 240.0 mg/kg/injection, schedule: Q01DX005 (ip), vehicle: Klucel (hydroxypropylcellulose) (HPC)): 105 % of control

C=C(C)C1=CC(=O)C(C)(C)O1
T/C (dose: 12.5 mg/kg/injection, schedule: Q01DX009 (ip), vehicle: saline with Tween-80): 106 % of control | T/C [1]: 105 % of control | T/C [2]: 102 % of control

O=C(O)CCN1C(=S)CSC1=S
T/C [8]: 107 % of control | T/C [9]: 103 % of control | T/C [10]: 100 % of control

O=C(Nc1ccccc1)/C(N=Nc1cc(S(=O)(=O)O)ccc1Cl)=N/Nc1cc(S(=O)(=O)O)ccc1Cl
T/C [2]: 98 % of control | T/C [3]: 96 % of control | T/C [4]: 86 % of control

Clc1ccccc1Nc1c2ccccc2nc2ccccc12
T/C (dose: 100.0 mg/kg/injection, schedule: Q04DX003 (ip), vehicle: saline): 100 % of control | T/C (dose: 132.0 mg/kg/injection, schedule: Q04DX003 (ip), vehicle: suspension in saline): 108 % of control | T/C (dose: 200.0 mg/kg/injection, schedule: Q04DX003 (ip), vehicle: suspension in saline): 110 % of control | T/C (dose: 300.0 mg/kg/injection, schedule: Q04DX003 (ip), vehicle: suspension in saline): 115 % of control | T/C (dose: 400.0 mg/kg/injection, schedule: Q04DX003 (ip), vehicle: saline): 104 % of control

C=C1CC2(CCOc3ccc(Cl)cc32)OC1=O (configuration not stated)
T/C (dose: 25.0 mg/kg/injection, schedule: Q04DX003 (ip), vehicle: saline with Tween-80): 110 % of control | T/C (dose: 50.0 mg/kg/injection, schedule: Q04DX003 (ip), vehicle: saline with Tween-80): 118 % of control | T/C [6]: 101 % of control and 116 % of control | T/C [7]: 101 % of control
